Converted amounts (≈) assume the structure as drawn. Where only a bound is given, the exact number is not on record here.

Assay [1] has as its system XTB strain (extremly resistant clinical isolate). Briefly: MIC and MBC, classical method (liquid Shkolnikova medium, Lowenstein-Jensen medium). The format is cell-based, Mycobacterium tuberculosis.
In assay [2] the test system is HSRE resistant strain (multiresistant clinical isolate). The assay is described as above. Type of assay: cell-based, Mycobacterium tuberculosis.

For orientation: MBC means the lowest tested concentration that kills the bacteria rather than only halting them. The low end stands for greater bactericidal potency, the high end for weaker bactericidal potency. What is called MIC is the smallest concentration in the dilution series that meets the test's criterion for growth inhibition. A high value points to a less susceptible organism. In assay [1] (Mycobacterium tuberculosis), `CN(Cc1ccccc1)c1nc(=O)c2cc(C(F)(F)F)cc([N+](=O)[O-])c2s1` [Compound 5, 2-[Benzyl(methyl)amino]-8-nitro-6-(trifluoromethyl)-4H-1,3-benzothiazin-4-one] came in with an MBC of 3.12 µg/mL (≈ 7.89 µM) and an MIC of 1.56 µg/mL (≈ 3.95 µM). In assay [2] (Mycobacterium tuberculosis), this molecule registered an MBC of 3.12 µg/mL (≈ 7.89 µM) and an MIC of 1.56 µg/mL (≈ 3.95 µM).
Consider `NNC(=O)c1ccncc1` [Isoniazid (INH), Isoniazid, reference compound], for which the MIC entry in assay [1] (X TB strain (extremly resistant)) and in assay [2] (HSRE resistant strain (multiresistant)) was “Not active” in each case.
In assay [1] (Mycobacterium tuberculosis), `O=c1nc(NCc2ccccc2)sc2c([N+](=O)[O-])cc(C(F)(F)F)cc12` [Compound 8, 2-(Benzylamino)-8-nitro-6-(trifluoromethyl)-4H-1,3-benzothiazin-4-one] displayed an MBC of 1.56 µg/mL (≈ 4.09 µM) and an MIC of 0.78 µg/mL (≈ 2.05 µM). Moreover, in assay [2] (Mycobacterium tuberculosis), the MBC is 1.56 µg/mL (≈ 4.09 µM) and the MIC was found to be 0.78 µg/mL (≈ 2.05 µM).
With `CN(Cc1ccccc1)c1nc(=O)c2cc(Cl)cc([N+](=O)[O-])c2s1` [Compound 10, 2-[Benzyl(methyl)amino]-6-chloro-8-nitro-4H-1,3-benzothiazin-4-one], the figures for the MBC in assay [1] (Mycobacterium tuberculosis) and in assay [2] (Mycobacterium tuberculosis) were 0.39 µg/mL (≈ 1.08 µM) and 1.56 µg/mL (≈ 4.31 µM), respectively. Moreover, the MIC in assay [1] (Mycobacterium tuberculosis) is under 0.39 µg/mL; in assay [2] (Mycobacterium tuberculosis) it was 1.56 µg/mL (≈ 4.31 µM).
